According to ChEMBL document CHEMBL1124095, “Resolution of the nonsteroidal antiandrogen 4'-cyano-3-[(4-fluorophenyl)sulfonyl]-2-hydroxy-2-methyl-3'- (trifluoromethyl)-propionanilide and the determination of the absolute configuration of the active enantiomer” (1988):

Species on record: Rattus norvegicus
Assay: Antiandrogen activity in male rats
Format: functional

Row | SMILES | ED50
1 | C[C@@](O)(CSc1ccc(F)cc1)C(=O)Nc1ccc(C#N)c(C(F)(F)F)c1 | 30 mg/kg
2 | CC(O)(CSc1ccc(F)cc1)C(=O)Nc1ccc(C#N)c(C(F)(F)F)c1 (stereo unspecified) | 0.5 mg/kg
3 | C[C@](O)(CSc1ccc(F)cc1)C(=O)Nc1ccc(C#N)c(C(F)(F)F)c1 | 0.5 mg/kg
4 | C[C@](O)(CS(=O)(=O)c1ccc(F)cc1)C(=O)Nc1ccc(C#N)c(C(F)(F)F)c1 [(R)-BICALUTAMIDE] | 0.5 mg/kg
5 | C[C@@](O)(CS(=O)(=O)c1ccc(F)cc1)C(=O)Nc1ccc(C#N)c(C(F)(F)F)c1 [(S)-BICALUTAMIDE] | 30 mg/kg
6 | CC(O)(CS(=O)(=O)c1ccc(F)cc1)C(=O)Nc1ccc(C#N)c(C(F)(F)F)c1 (stereo unspecified) [BICALUTAMIDE] | 0.5 mg/kg
